This note sets out measurements from patent publication US20220064167A1, “IMIDAZO-PYRAZOLE CARBOXAMIDE DERIVATIVES AS ANTICANCER AGENTS AND THE SYNTHESIS THEREOF” (AVIDIN KFT., priority 2018, published 2022).

Assay [1] deals with HL-60 cells. The experiment in a line: resazurin viability assay, Example 103 (FIG. 1). Type of assay: cell-based. The note with it: Homo sapiens, 72 h incubation, 20.000 cells/well, read-out: half-inhibitory concentration (IC50) on viability of HL-60 cells. On the procedure:
The human primary fibroblasts (6000 cells/well) and Hl60 cells (20.000 cells/well) were seeded into 96-well plates (Corning Life Sciences) in media. Fibroblasts were cultured overnight before treatment. Effects of compounds described in Example 22, 60 and 83 were examined in concentrations of 1 μM, 250 nM, 62.5 nM, 15.6 nM, 3.9 nM and 0.9 nM in 100 μl after 72 h incubation. Resazurin reagent was prepared and used as described in Example 1.
Viability was calculated with relation to untreated control cells and blank wells containing media without cells. IC50 values (50% inhibiting concentration) were calculated by GraphPad Prism® 5.
(In general: Resazurin is reduced to fluorescent resorufin, in cell work by metabolically active cells.)

In another assay the test system is Bcl-xl in HL-60 cells. Description: flow cytometry of Bcl-xl bright cells (FIG. 2A). Type of assay: cell-based, human. The note with it: HL-60, 40 nM, 200 nM and 1 μM, 24 h. On the procedure:
Human promyelocytic leukemia HL60 Cells (500,000/well) were plated in 24-well tissue culture plates (Corning Life Sciences) in RPMI 10% FCS (Gibco) and were treated with the compounds described in Example 60 and 83 at 40 nM, 200 nM and 1 μM concentrations in 500 μl media. After 24 h incubation time cells with the corresponding supernatants were harvested and centrifuged down (2000 rpm, 5 min).
Pellets were resuspended and fixed in 3.5% PBS buffered formaldehyde (Molar Chemicals) for 10 minutes. Cells were washed with FACS-buffer (2% FCS, (Gibco) in PBS), centrifuged down (2000 rpm, 5 min). Cells were permeabilized in Permeability buffer (1% FCS, 0.1% saponin (Sigma-Aldrich) in PBS pH 7.4) for 5 minutes. Cells were washed with FACS buffer (2% FCS, (Gibco) in PBS), centrifuged (2000 rpm, 5 min). The following primary antibodies were used: Bcl-xl-Alexa 488, (Cell Signaling, cat. numb. 2767S), dilution 1:75, 24 h; pAkt-Alexa Fluor 488, (Ser473), (Cell Signaling, cat. numb, 4071), dilution 1:50, 24 or 72h; After incubation for 1h at 4° C. samples were washed two times with FACS buffer. […] In order to calculate the signal to noise ratio mean fluorescent intensity (MFI) was calculated by the following equation: =POWER(10; (Medianstained−Median unstained, untreated)/Chd), where Chd means 256, the number of channels per decade (Fajka-Boja et al. 2002; Sharrow 2001) in Microsoft Excel. […]
(In general: Flow cytometry measures light scatter and fluorescence of single cells or particles in a stream.)

In assay [2] the test system is HL-60 cells. Description: Annexin V / propidium iodide apoptosis assay (FIG. 4). Type of assay: cell-based, human. To be noted: HL-60, 40 nM, 200 nM and 1 μM, 24 h. On the procedure:
Cells (200,000/well) were plated in 24-well tissue culture plates (Corning Life Sciences) and treated with the compounds described in Example 60 and 83 at 40 nM, 200 nM and 1 μM concentrations in 500 μl media. After 24 h cells were harvested with the corresponding supernatant and centrifuged down (2000 rpm, 5 min). Pellets were resuspended in Annexin V binding buffer (0.01 M HEPES, 0.14 M NaCl and 2.5 mM CaCl2). Annexin V-Alexa Fluor® 488 (Life Technologies, 2.5:100) was added to the cells, which were then kept for 15 min in the dark at room temperature. Before the acquisition propidium iodide (10 μg/ml, Sigma-Aldrich) was added in Annexin V binding buffer to dilute Annexin V-Alexa Fluor® 488 5×. Cells (20.000 events) were analyzed on a FACSCalibur flow cytometer using CellQuest software (Becton Dickinson). The percentage of the FL1 (530/30 nm filter, Annexin V-Alexa Fluor® 488) positive and FL3 (670 nm filter, propidium iodide) negative early apoptotic cells and FL1 positive and FL3 positive late apoptotic cells were determined. The total apoptotic population included both early and late apoptotic cells. Column charts were created by GraphPad Prism® 5. Results are depicted in FIG. 4. […] We could detect AnnexinV^+/PI^− early and AnnexinV^+/PI^+ late apoptotic cell populations after 24 h of treatment.

The subject of the next assay is HT168 (human melanoma). The experiment in a line: viability assay (Table 2). Type of assay: cell-based. On the procedure:
(§1) For viability assays cells were seeded in 96 well plates (MCF7 and 4T1: 6000, HL60: 120.000 cells/well) and incubated overnight. Compounds were dissolved in dimethyl sulfoxide (DMSO). Cells were treated with an increasing concentration of compounds having the general formula (I.) (156 nM-100 μM). Cell viability was determined after 72h incubation. Resazurin reagent (Sigma-Aldrich) was dissolved in PBS (pH 7.4) at 0.15 mg/ml concentration, sterile filtered (0.22 μm, Merck Millipore) and aliquoted at −20° C. Resazurin reagent (Sigma-Aldrich) was added at a final concentration of 25 μg/ml. After 2 hours incubation at 37° C. 5% CO2 fluorescence (530 nm excitation/580 nm emission) was recorded on a multimode microplate reader (Cytofluor4000, PerSeptive Biosytems). Viability was calculated with relation to untreated control cells and blank wells containing media without cells. IC50 values (50% inhibiting concentration) were calculated by GraphPad Prism® 5 (La Jolla, Calif., USA).
(§2) HT168 (human melanoma), HT199 (human melanoma), HT29 (human colorectal adenocarcinoma), MOLT4 (human leukemia) and U937 (human lymphoma) cells were maintained in Roswell Park Memorial Institute 1640 medium (RPMI-1640) 10% FCS. SKOV-3 cells were maintained in Dulbecco's Modified Eagle Medium/McCoy's medium (DMEM/McCoy) 10% FCS.
(§3) Media were supplemented with 2 mM GlutaMAX, and 100 U/mL penicillin, 100 μg/mL streptomycin (Life Technologies, Carlsbad, Calif., USA). Cell cultures were maintained at 37° C. in a humidified incubator in an atmosphere of 5% CO2 (Sanyo, Japan).
(§4) Viability assays were performed as described in Example 102.

The next assay relates to HT199 (human melanoma). Description: viability assay (Table 2). Type of assay: cell-based. The protocol:
as §1, §2, §3, §4

Assay [3] relates to HT29 (human colorectal adenocarcinoma). Description: viability assay (Table 2). It is filed as cell-based. The note with it: HT-29. The protocol: as §1, §2, §3, §4

`CC(C)(C)Nc1c(C(C)(C)C)[nH]c2c(C(=O)Nc3ccc(F)cc3)cnn12` [Example 60, 2-(Tert-butyl)-N-(4-fluorophenyl)-3-((tert-butyl-2-yl)amino)-1H-imidazo[1,2-b]pyrazole-7-carboxamide]: the IC50 with HL-60 cells [1] is 210 nM; in the assay with HT168 (human melanoma) it was 500 nM; in the assay with HT199 (human melanoma), 300 nM; in assay [3], 250 nM. Moreover, the “percentage of the Bcl-xl bright cells” value in the assay on Bcl-xl in HL-60 cells is recorded as “increase”. For the same compound, in the assay on HL-60 cells [2], the “AnnexinV+/PI- early and AnnexinV+/PI+ late apoptotic cell populations” value is recorded as “accompanied by apoptosis”.
As for `CC(C)(C)Nc1c(C(C)(C)C)[nH]c2c(C(=O)Nc3ccc(N)cc3)cnn12` [Example 83, N-(4-Aminophenyl)-2-(tert-butyl)-3-(tert-butylamino)-1H-imidazo[1,2-b]pyrazole-7-carboxamide], the IC50 amounted to 50 nM in the assay with HL-60 cells [1], 100 nM with HT168 (human melanoma), 100 nM in the assay with HT199 (human melanoma) and 50 nM in assay [3]. In addition, the “percentage of the Bcl-xl bright cells” value in the assay on Bcl-xl in HL-60 cells is on record as “increase”. Also, in the assay on HL-60 cells [2], the “AnnexinV+/PI- early and AnnexinV+/PI+ late apoptotic cell populations” value is “accompanied by apoptosis”.
